# Source: patent US6677466B1, “Method for stabilizing hydrogen peroxide” (DSM Fine Chemicals Austria NFG GmbH & Co KG, priority 1999, dated 2004)
# Test: O2 evolution from [Mn2O3{Me3tacn}2](PF6)2-catalysed decomposition of H2O2 with stabilizer
# Format: physicochemical
# Procedure: A 50% strength aqueous solution of H2O2 (304 mg; 4.46 mmol) was added to 454 mg (4.46 mmol) of methyl pyruvate and to 535 mg (4.46 mmol) of glyoxylic methyl ester methyl hemiacetal, respectively. In the case of methyl pyruvate, a marked evolution of heat was discovered during the addition. After one hour, the H2O2/α-keto ester mixture was mixed with 1 ml of solvent and added to a suspension of 1.0 mg of [Mn2O3{Me3tacn}2](PF6)2 catalyst in 4 ml of solvent. The suspension was introduced into a 50 ml flask which was maintained at room temperature in a water bath. As a result of this addition, in cases where undissolved catalyst was still present, the catalyst dissolved completely.
# As a comparison, a suspension of 1.0 mg of [Mn2O3{Me3tacn}2](PF6)2 catalyst in 4 ml of solvent was combined with a 50% strength aqueous solution of H2O2 (304 mg; 4.46 mmol) and 1 ml of solvent without stabilizer.
# The amount of oxygen which was evolved from the decomposition of the hydrogen peroxide was determined as a function of time using a Brooks meter, which permitted measurement of the gas flow and the total amount of evolved gas.
smiles,measurement,setting,value
COC(=O)C(C)=O [methyl pyruvate],O2 evolution V(O2) (Vmax(O2)*100%),"solv. acetic acid, t 1 min",0%
same,O2 evolution V(O2) (Vmax(O2)*100%),"solv. acetic acid, t 4 min",3%
same,O2 evolution V(O2) (Vmax(O2)*100%),"solv. acetic acid, t 5 min",8%
same,O2 evolution V(O2) (Vmax(O2)*100%),"solv. acetic acid, t 10 min",20%
same,O2 evolution V(O2) (Vmax(O2)*100%),"solv. acetic acid, t 15 min",24%
same,O2 evolution V(O2) (Vmax(O2)*100%),"solv. acetic acid, t 20 min",24%
same,O2 evolution V(O2) (Vmax(O2)*100%),"solv. acetic acid, t 25 min",24%
same,O2 evolution V(O2) (Vmax(O2)*100%),"solv. acetic acid, t 30 min",24%
same,O2 evolution V(O2) (Vmax(O2)*100%),"solv. acetic acid, t 35 min",24%
same,O2 evolution V(O2) (Vmax(O2)*100%),"solv. acetic acid, t 50 min",24%
same,O2 evolution V(O2) (Vmax(O2)*100%),"solv. acetic acid, t 60 min",24%
same,O2 evolution V(O2) (Vmax(O2)*100%),"solv. acetic acid, t 70 min",24%
same,O2 evolution V(O2) (Vmax(O2)*100%),"solv. acetic acid, t 80 min",24%
same,O2 evolution V(O2) (Vmax(O2)*100%),"solv. acetone, t 1 min",0%
same,O2 evolution V(O2) (Vmax(O2)*100%),"solv. acetone, t 4 min",0%
same,O2 evolution V(O2) (Vmax(O2)*100%),"solv. acetone, t 5 min",0%
same,O2 evolution V(O2) (Vmax(O2)*100%),"solv. acetone, t 10 min",0%
same,O2 evolution V(O2) (Vmax(O2)*100%),"solv. acetone, t 15 min",0%
same,O2 evolution V(O2) (Vmax(O2)*100%),"solv. acetone, t 20 min",0%
same,O2 evolution V(O2) (Vmax(O2)*100%),"solv. acetone, t 25 min",0%
same,O2 evolution V(O2) (Vmax(O2)*100%),"solv. acetone, t 30 min",0%
same,O2 evolution V(O2) (Vmax(O2)*100%),"solv. acetone, t 35 min",0%
same,O2 evolution V(O2) (Vmax(O2)*100%),"solv. acetone, t 50 min",6%
same,O2 evolution V(O2) (Vmax(O2)*100%),"solv. acetone, t 60 min",12%
same,O2 evolution V(O2) (Vmax(O2)*100%),"solv. acetone, t 70 min",20%
same,O2 evolution V(O2) (Vmax(O2)*100%),"solv. acetone, t 80 min",28%
same,O2 evolution V(O2) (Vmax(O2)*100%),"solv. acetonitrile, t 1 min",0%
same,O2 evolution V(O2) (Vmax(O2)*100%),"solv. acetonitrile, t 4 min",0%
same,O2 evolution V(O2) (Vmax(O2)*100%),"solv. acetonitrile, t 5 min",0%
same,O2 evolution V(O2) (Vmax(O2)*100%),"solv. acetonitrile, t 10 min",3%
same,O2 evolution V(O2) (Vmax(O2)*100%),"solv. acetonitrile, t 15 min",9%
same,O2 evolution V(O2) (Vmax(O2)*100%),"solv. acetonitrile, t 20 min",18%
same,O2 evolution V(O2) (Vmax(O2)*100%),"solv. acetonitrile, t 25 min",25%
same,O2 evolution V(O2) (Vmax(O2)*100%),"solv. acetonitrile, t 30 min",30%
same,O2 evolution V(O2) (Vmax(O2)*100%),"solv. acetonitrile, t 35 min",35%
same,O2 evolution V(O2) (Vmax(O2)*100%),"solv. acetonitrile, t 50 min",38%
same,O2 evolution V(O2) (Vmax(O2)*100%),"solv. acetonitrile, t 60 min",38%
same,O2 evolution V(O2) (Vmax(O2)*100%),"solv. acetonitrile, t 70 min",38%
same,O2 evolution V(O2) (Vmax(O2)*100%),"solv. acetonitrile, t 80 min",38%
same,O2 evolution V(O2) (Vmax(O2)*100%),"solv. ethyl acetate, t 1 min",0%
same,O2 evolution V(O2) (Vmax(O2)*100%),"solv. ethyl acetate, t 4 min",0%
same,O2 evolution V(O2) (Vmax(O2)*100%),"solv. ethyl acetate, t 5 min",0%
same,O2 evolution V(O2) (Vmax(O2)*100%),"solv. ethyl acetate, t 10 min",6%
same,O2 evolution V(O2) (Vmax(O2)*100%),"solv. ethyl acetate, t 15 min",9%
same,O2 evolution V(O2) (Vmax(O2)*100%),"solv. ethyl acetate, t 20 min",9%
same,O2 evolution V(O2) (Vmax(O2)*100%),"solv. ethyl acetate, t 25 min",9%
same,O2 evolution V(O2) (Vmax(O2)*100%),"solv. ethyl acetate, t 30 min",9%
same,O2 evolution V(O2) (Vmax(O2)*100%),"solv. ethyl acetate, t 35 min",9%
same,O2 evolution V(O2) (Vmax(O2)*100%),"solv. ethyl acetate, t 50 min",9%
same,O2 evolution V(O2) (Vmax(O2)*100%),"solv. ethyl acetate, t 60 min",9%
same,O2 evolution V(O2) (Vmax(O2)*100%),"solv. ethyl acetate, t 70 min",9%
same,O2 evolution V(O2) (Vmax(O2)*100%),"solv. ethyl acetate, t 80 min",9%
same,O2 evolution V(O2) (Vmax(O2)*100%),"solv. methanol, t 1 min",1%
same,O2 evolution V(O2) (Vmax(O2)*100%),"solv. methanol, t 4 min",2%
same,O2 evolution V(O2) (Vmax(O2)*100%),"solv. methanol, t 5 min",2%
same,O2 evolution V(O2) (Vmax(O2)*100%),"solv. methanol, t 10 min",2%
same,O2 evolution V(O2) (Vmax(O2)*100%),"solv. methanol, t 15 min",2%
same,O2 evolution V(O2) (Vmax(O2)*100%),"solv. methanol, t 20 min",2%
same,O2 evolution V(O2) (Vmax(O2)*100%),"solv. methanol, t 25 min",2%
same,O2 evolution V(O2) (Vmax(O2)*100%),"solv. methanol, t 30 min",2%
same,O2 evolution V(O2) (Vmax(O2)*100%),"solv. methanol, t 35 min",2%
same,O2 evolution V(O2) (Vmax(O2)*100%),"solv. methanol, t 50 min",2%
same,O2 evolution V(O2) (Vmax(O2)*100%),"solv. methanol, t 60 min",2%
same,O2 evolution V(O2) (Vmax(O2)*100%),"solv. methanol, t 70 min",2%
same,O2 evolution V(O2) (Vmax(O2)*100%),"solv. methanol, t 80 min",2%
same,O2 evolution V(O2) (Vmax(O2)*100%),"solv. t-butanol, t 1 min",0%
same,O2 evolution V(O2) (Vmax(O2)*100%),"solv. t-butanol, t 4 min",0%
same,O2 evolution V(O2) (Vmax(O2)*100%),"solv. t-butanol, t 5 min",0%
same,O2 evolution V(O2) (Vmax(O2)*100%),"solv. t-butanol, t 10 min",0%
same,O2 evolution V(O2) (Vmax(O2)*100%),"solv. t-butanol, t 15 min",0%
same,O2 evolution V(O2) (Vmax(O2)*100%),"solv. t-butanol, t 20 min",0%
same,O2 evolution V(O2) (Vmax(O2)*100%),"solv. t-butanol, t 25 min",0%
same,O2 evolution V(O2) (Vmax(O2)*100%),"solv. t-butanol, t 30 min",0%
same,O2 evolution V(O2) (Vmax(O2)*100%),"solv. t-butanol, t 35 min",0%
same,O2 evolution V(O2) (Vmax(O2)*100%),"solv. t-butanol, t 50 min",0%
same,O2 evolution V(O2) (Vmax(O2)*100%),"solv. t-butanol, t 60 min",0%
same,O2 evolution V(O2) (Vmax(O2)*100%),"solv. t-butanol, t 70 min",0%
same,O2 evolution V(O2) (Vmax(O2)*100%),"solv. t-butanol, t 80 min",0%
